Test results reported in the supplement of paper PMC10307832.

Columns and labels:
Experiment in all cases: relative viability (nuclei count vs DMSO), 5 days (fraction); higher = more cells survive
Dinaciclib + Lapatinib = compound: CCc1cnn2c(NCc3ccc[n+]([O-])c3)cc(N3CCCC[C@H]3CCO)nc12 [Dinaciclib] + CS(=O)(=O)CCNCc1ccc(-c2ccc3ncnc(Nc4ccc(OCc5cccc(F)c5)c(Cl)c4)c3c2)o1 [Lapatinib] (partner 2 µM)
In short: (§1)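 Relative viability is defined as nuclei in treated wells over nuclei in vehicle wells. Duplicate plates were run and medians reported. Lung cancer cell lines in 1536-well plates were dosed by pin tool one day after seeding, with one drug or with a fixed anchor-drug dose plus five library-drug doses (not always all listed) in √10 steps, and nuclei were counted after 5 days.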

Dinaciclib + Navitoclax = compound: CCc1cnn2c(NCc3ccc[n+]([O-])c3)cc(N3CCCC[C@H]3CCO)nc12 [Dinaciclib] + CC1(C)CCC(c2ccc(Cl)cc2)=C(CN2CCN(c3ccc(C(=O)NS(=O)(=O)c4ccc(N[C@H](CCN5CCOCC5)CSc5ccccc5)c(S(=O)(=O)C(F)(F)F)c4)cc3)CC2)C1 [Navitoclax] (partner 0.5 µM)
In short: as §1

Dinaciclib + Dasatinib = compound: CCc1cnn2c(NCc3ccc[n+]([O-])c3)cc(N3CCCC[C@H]3CCO)nc12 [Dinaciclib] + Cc1nc(Nc2ncc(C(=O)Nc3c(C)cccc3Cl)s2)cc(N2CCN(CCO)CC2)n1 [Dasatinib] (partner 0.075 µM)
In short: as §1

Dinaciclib + Vorinostat = compound: CCc1cnn2c(NCc3ccc[n+]([O-])c3)cc(N3CCCC[C@H]3CCO)nc12 [Dinaciclib] + O=C(CCCCCCC(=O)Nc1ccccc1)NO [Vorinostat] (partner 1 µM)
In short: as §1

Dinaciclib = compound: CCc1cnn2c(NCc3ccc[n+]([O-])c3)cc(N3CCCC[C@H]3CCO)nc12 [Dinaciclib]
In short: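 Viability was defined as treated-well nuclei divided by vehicle-well nuclei, with the median taken over replicate plates. Cells from lung cancer lines sat overnight at 37 °C in 1536-well plates, received five √10-spaced library-drug doses by pinning on vehicle-anchored plates, and grew 5 days without medium change before one-step fixation, permeabilisation and Hoechst staining, 4× imaging and MetaXpress nuclear counts. Only plates with control CV under 25% and at least one doubling were kept.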

Cell Line	relative viability (Dinaciclib + Lapatinib; first compound 0.009487 µM)	relative viability (Dinaciclib + Lapatinib; first compound 0.03 µM)	relative viability (Dinaciclib + Lapatinib; first compound 0.09487 µM)	relative viability (Dinaciclib + Lapatinib; first compound 0.3 µM)	relative viability (Dinaciclib + Navitoclax; first compound 0.009487 µM)	relative viability (Dinaciclib + Navitoclax; first compound 0.03 µM)	relative viability (Dinaciclib + Navitoclax; first compound 0.09487 µM)	relative viability (Dinaciclib + Navitoclax; first compound 0.3 µM)	relative viability (Dinaciclib + Dasatinib; first compound 0.009487 µM)	relative viability (Dinaciclib + Dasatinib; first compound 0.03 µM)	relative viability (Dinaciclib + Dasatinib; first compound 0.09487 µM)	relative viability (Dinaciclib + Dasatinib; first compound 0.3 µM)	relative viability (Dinaciclib + Vorinostat; first compound 0.009487 µM)	relative viability (Dinaciclib + Vorinostat; first compound 0.03 µM)	relative viability (Dinaciclib + Vorinostat; first compound 0.09487 µM)	relative viability (Dinaciclib + Vorinostat; first compound 0.3 µM)	relative viability (Dinaciclib; 0.009487 µM)	relative viability (Dinaciclib; 0.03 µM)	relative viability (Dinaciclib; 0.09487 µM)	relative viability (Dinaciclib; 0.3 µM)
NCI-H2347	0.959	0.637	0.214	0.259	0.779	0.167	0.143	0.143	0.344	0.246	0.173	0.171	0.515	0.304	0.252	0.228	1.01	0.538	0.257	0.214
HCC-827	0.191	0.183	0.149	0.132	1.02	0.699	0.127	0.108	0.285	0.221	0.135	0.184	1	0.747	0.123	0.159	1.1	0.85	0.188	0.168
NCI-H1666	0.319	0.19	0.182	0.212	0.848	0.186	0.227	0.244	0.617	0.37	0.304	0.264	1.28	0.67	0.535	0.625	0.896	0.485	0.376	0.345
201T	1.14	0.743	0.361	0.245	1.31	1.19	0.416	0.32	0.621	0.428	0.265	0.245	1.24	0.74	0.214	0.213	1.09	0.632	0.339	0.236
PC-3 [JPC-3]	0.431	0.419	0.365	0.23	0.764	0.713	0.394	0.2	0.991	0.978	0.465	0.194	0.915	0.56	0.277	0.323	1.05	0.92	0.4	0.266
NCI-H2405	0.957	0.197	0.207	0.183	0.795	0.0802	0.0747	0.0589	0.228	0.259	0.224	0.218	0.813	0.211	0.217	0.201	0.947	0.405	0.246	0.23
LXF-289	0.926	0.167	0.106	0.0884	0.921	0.189	0.0659	0.0645	0.282	0.0717	0.0492	0.0472	0.813	0.257	0.0809	0.0855	1.07	0.924	0.134	0.101
EKVX	0.229	0.118	0.118	0.116	0.738	0.298	0.0814	0.106	0.548	0.415	0.159	0.223	0.612	0.472	0.167	0.226	0.996	0.601	0.184	0.13
A-427	0.949	0.291	0.0989	0.0767	0.94	0.434	0.089	0.0921	0.486	0.111	0.0662	0.0725	0.699	0.216	0.111	0.117	0.828	0.144	0.084	0.0857
SK-MES-1	0.5	0.355	0.16	0.151	1.26	0.131	0.114	0.119	0.217	0.109	0.0863	0.114	1.23	0.156	0.161	0.148	1.04	0.295	0.163	0.15
LCLC-97TM1	0.662	0.173	0.0769	0.0958	0.44	0.108	0.162	0.114	0.718	0.434	0.14	0.108	0.56	0.0645	0.0617	0.0592	0.506	0.134	0.0776	0.0861
NCI-H2170	0.273	0.197	0.186	0.175	0.477	0.155	0.139	0.19	0.475	0.137	0.123	0.13	0.736	0.132	0.116	0.116	0.942	0.24	0.171	0.156
NCI-H1993	0.869	0.45		0.723	0.799	0.499		0.562	0.637	0.509	0.481	0.576	0.651	0.281	0.42	0.308	0.861	0.631	0.483	0.485
NCI-H460	0.089	0.0117	0.011	0.0113	1.05	0.0119	0.0108	0.0098	0.453	0.0263	0.0179	0.021	0.57	0.0214	0.0191	0.0236	0.885	0.0593	0.0265	0.0308
NCI-H1975	0.561	0.129	0.107	0.133	1.08	0.143	0.137	0.128	0.483	0.263	0.0967	0.0711	0.677	0.39	0.144	0.15	0.969	0.442	0.164	0.144
RERF-LC-KJ	0.958	0.563	0.151	0.128	0.906	0.172	0.122	0.169	0.36	0.192	0.15	0.159	0.652	0.373	0.141	0.135	1.01	0.29	0.176	0.156
NCI-H322M	0.637	0.325	0.243	0.201	1.27	1.2	0.587	0.205	0.248	0.248	0.247	0.28	0.898	0.396	0.347	0.399	0.721	0.333	0.289	0.258
NCI-H1651	0.685	0.142	0.0637	0.0602	0.745	0.289	0.0312	0.0396	0.299	0.159	0.0523	0.0403	0.616	0.534	0.358	0.0861	0.969	0.764	0.186	0.0892
HARA	0.604	0.0778	0.0593	0.0436	1.04	0.0747	0.0574	0.0511	0.254	0.22	0.0491	0.0506	0.527	0.331	0.0816	0.0937	0.912	0.18	0.088	0.0759
H3255	0.378	0.233	0.123	0.214	0.487	0.0787	0.0605	0.0759	0.289	0.313	0.271	0.195	0.705	0.51	0.211	0.205	0.928	0.56	0.219	0.196
CAL-12T	0.323	0.171	0.179	0.149	0.487	0.0619	0.0673	0.0743	0.11	0.0662	0.082	0.0795	0.511	0.0992	0.1	0.131	0.479	0.163	0.121	0.137
NCI-H1437	0.637	0.115	0.0859	0.0933	0.972	0.108	0.106	0.0962	0.411	0.102	0.103	0.0897	0.87	0.183	0.181	0.177	0.894	0.227	0.17	0.154
HOP-62	0.917	0.281	0.0612	0.0566	0.967	0.126	0.0367	0.042	0.662	0.33	0.0666	0.0723	0.543	0.0919	0.0742	0.0609	0.957	0.474	0.0898	0.0943
EPLC-272H	1	0.104	0.0545	0.051	1.05	0.576	0.411	0.0616	0.381	0.089	0.0366	0.0325	0.242	0.0369	0.0282	0.0401	0.855	0.0817	0.0396	0.0347
COR-L 105	0.327	0.292	0.283	0.299	0.496	0.213	0.214	0.218	0.25	0.201	0.191	0.187	0.679	0.444	0.302	0.302	0.599	0.285	0.264	0.29
HCC-366	0.557	0.0225	0.0184	0.0226	1.01	0.11	0.0149	0.0168	0.597	0.14	0.0199	0.033	0.193	0.0415	0.0286	0.0247	1.01	0.107	0.0385	0.0363
NCI-H2009	0.493	0.108	0.101	0.0913	1.01	0.515	0.0255	0.031	0.199	0.0887	0.072	0.0636	0.806	0.202	0.0818	0.0781	0.937	0.179	0.109	0.1
NCI-H23	0.31	0.128	0.12	0.129	0.74	0.173	0.113	0.12	0.647	0.249	0.0991	0.114	0.512	0.143	0.104	0.122	0.633	0.176	0.109	0.126
NCI-H727	0.644	0.238	0.222	0.228	0.37	0.0912	0.0827	0.0949	0.344	0.263	0.209	0.325	1.33	1.15	0.362	0.312	0.975	0.411	0.222	0.245
NCI-H1355	0.979	0.681	0.142	0.138	0.943	0.159	0.123	0.0999	0.815	0.419	0.147	0.159	0.634	0.507	0.262	0.136	1.08	0.681	0.214	0.151
